Assay results reported in patent publication US20100204295A1, “TREATMENT OF ALLERGIC DISEASE WITH IMMUNOMODULATOR COMPOUNDS” (SCICLONE PHARMACEUTICALS, INC., priority 2007, published 2010).

Key:
[1] = system: BAL cells; experiment: BAL white blood cells and differentials, guinea pig model; format: in vivo, Dunkin-Hartley guinea pigs
Experimental: Animals were sensitized on day 0 ip with 50 mg/kg OVA. On Days 17, 18, 19, and 20, animals received an ip injection between 8 and 10 am with PBS, SCV-07 at 1 ug/kg, or SCV-07 at 10 ug/kg (Peptide treatment). Between 8 and 10 a.m. on Day 21, animals were administered peptide 2 hours before OVA or saline (NSS) aerosol challenge. 30 min before OVA or NSS aerosol challenge each animal was injected ip with an antihistamine (6.1 mg/kg pyrilamine maleate) to prevent death due to the anaphylactic response that accompanies aerosol OVA challenge. Animals were exposed to aerosol in pairs with either 1% OVA solution or NSS for 5 min in a plexiglass chamber (22×22×29 cm) using a DeVilbiss Model 35B Ultrasonic Nebulizer. Animals were observed during the total 5 min aerosolization and comments recorded. Within 22-24 hours after challenge, animals were euthanized, bled by cardiac puncture, lavaged and lung lobes removed for measurement of cellular infiltration. At the time of OVA or NSS challenge and euthanasia, animal weights ranged from approximately 350-550 g, with the average weight approximately 420 g. This experimental protocol is similar to that used in previously published studies (Regal and Fraser, 1996; Regal et al., 2000). Animals were euthanized with pentobarbital (100-200 mg/kg), bled by cardiac puncture, and lavaged with room temperature PBS. For bronchoalveolar lavage (BAL), the trachea was cannulated and 4 volumes of PBS were introduced into the tracheal cannula and gently withdrawn. Total lavage volume was 60 ml/kg. The BAL was centrifuged to sediment the cells, and the BAL cell pellet re-suspended in 1.0 ml PBS for determination of the total number of white blood cells (WBC) recovered in the BAL of each animal. The BAL supernatant was frozen at −70 C for determination of total protein recovered in the BAL supernatant using the method of Lowry et al. (1951). Total white blood cells in BAL were counted by standard methods in a hemacytometer using Turk's solution. Differential counts were obtained from cytospin preparations of BAL cells (3×10^4 cells) stained with a modified Wrights' stain (Diff Quik, American Scientific Products, McGraw Park, Ill.). Four hundred cells were counted and identified as eosinophils, neutrophils, or mononuclear cells. […] EPO activity from the homogenized lung after lavage was expressed as total OD/min from the left caudal lobe. MPO activity from the homogenized lung after lavage was expressed as total units of enzyme activity from the right caudal lobe. […] OD412 of the BAL supernatant was also determined to estimate the number of RBCS that were lysed during the lavage procedure and prior to re-suspension of the cells for counting. […]

[2] = system: spleen lymphocytes; details: cited from earlier work
[3] = system: immunization with sheep red blood cells; details: in vivo; cited from earlier work
[4] = system: OVA specific IgG1; experiment: OVA specific IgG1 in serum by ELISA, guinea pig model; format: in vivo, Dunkin-Hartley guinea pigs; details: 1 or 10 ug/kg ip days 17-21
Experimental: Animals were sensitized on day 0 ip with 50 mg/kg OVA. On Days 17, 18, 19, and 20, animals received an ip injection between 8 and 10 am with PBS, SCV-07 at 1 ug/kg, or SCV-07 at 10 ug/kg (Peptide treatment). Between 8 and 10 a.m. on Day 21, animals were administered peptide 2 hours before OVA or saline (NSS) aerosol challenge. 30 min before OVA or NSS aerosol challenge each animal was injected ip with an antihistamine (6.1 mg/kg pyrilamine maleate) to prevent death due to the anaphylactic response that accompanies aerosol OVA challenge. Animals were exposed to aerosol in pairs with either 1% OVA solution or NSS for 5 min in a plexiglass chamber (22×22×29 cm) using a DeVilbiss Model 35B Ultrasonic Nebulizer. Animals were observed during the total 5 min aerosolization and comments recorded. Within 22-24 hours after challenge, animals were euthanized, bled by cardiac puncture, lavaged and lung lobes removed for measurement of cellular infiltration. At the time of OVA or NSS challenge and euthanasia, animal weights ranged from approximately 350-550 g, with the average weight approximately 420 g. […]
OVA specific IgG1 in serum was determined by ELISA as previously described (Fraser et al., 1998; Regal et al., 2000). The data were expressed as the concentration of OVA specific IgG1 in the sample divided by the concentration of OVA specific IgG1 in the standard, defined as 1. […]

N[C@H](CCC(=O)N[C@@H](Cc1c[nH]c2ccccc12)C(=O)O)C(=O)O [SCV-07, γ-D-glutamyl-L-tryptophan]
Change in BAL neutrophils from NSS to OVA ([1]; 1 ug/kg, ANOVA contrast vs PBS treatment): differed | Composition of cells in the BAL of control animals challenged with NSS ([1]; NSS aerosol, 1 or 10 ug/kg): did not significantly affect | Total eosinophils in the BAL ([1]; OVA aerosol challenge): did not change | % eosinophils in the BAL ([1]; OVA aerosol challenge, not statistically significant): tended to decrease | Con-A-induced interleukin-2 (IL-2) production by spleen lymphocytes [2]: increases | IL-2 receptor expression by spleen lymphocytes [2]: increases | Effect in a model of immunization with sheep red blood cells [3]: strong immunostimulatory effect | Concentration of OVA specific IgG1 antibody in the serum [4]: did not significantly affect
